The values that follow come from paper PMC12808100, “The non-catalytic DNA polymerase ε subunit is an NPF motif recognition protein” (Nature Communications, 2025).

Molecules are shown by their SMILES. Residues, ends and D or L forms follow the SMILES beside them.

In assay [1] the target is RFT1 (Homo sapiens, UniProt Q96AA3). Kind of assay: nHU-MS peptide bait, prey RFT1.
For assay [2], the target named is CD2AP (Homo sapiens, UniProt Q9Y5K6). Kind of assay: nHU-MS peptide bait, prey CD2AP.
Assay [3] deals with T1, HA-POLE2 (Homo sapiens, UniProt P56282).
T1 construct: POLE2: UniProt ID P56282, residues 1-527; expressed in transfected cells; host or cells: HEK293T
As to the kind of experiment: Titration nHU, Western blot, HA-POLE2 in 293T cell extract. It is filed as binding. Conditions: HA-tagged POLE2, range over assays, authors' rebuttal; read-out: dissociation constant. The text has this:
(§1) To identify the partners of NPF motifs, we used the native holdup (nHU) assay that was recently developed by our team (Fig. 1B). The holdup approach has been extensively used to determine equilibrium dissociation constants of transient interactions mediated by PDZ and SH3 domains, 14-3-3, and human papilloma virus E6 proteins, and even nucleic acid-protein interactions[7],[30]–[35]. In the nHU experiments, a purified bait molecule, or a control compound, is immobilized on a resin at high concentration (typically 10 μM, or higher) and these resin stocks are subsequently mixed with dilute cell extracts. […] This liquid phase contains the unbound prey molecules at near binding equilibrium that can be quantified using selective and quantitative analytical approaches, such as mass spectrometry. Therefore, proteins that interact with the bait molecule will appear to be depleted in the solvent phase and by measuring its relative concentration compared to the control nHU experiment, the degree of binding (θ) can be determined that can be converted to apparent steady-state dissociation constants, according to:1 θ=1−Ifree/Itot=Cbait/Cbait+Kapp where Itot and Ifree are the measured total and bait-depleted equilibrium mass spectrometry total ion intensities of prey proteins, Cbait is the bait molecule concentration and Kapp is the apparent dissociation constant. […]
In general terms: A western blot detects proteins with antibodies after separation by electrophoresis.

Assay [4] has as its target HP1BP3 (Homo sapiens, UniProt Q5SSJ5). As to the kind of experiment: nHU-MS peptide bait, prey HP1BP3.
Assay [5] deals with T2, EPS15 (Homo sapiens, UniProt P42566).
T2 construct: endogenous in cells; host or cells: Jurkat E6.1
T2 sequence (P42566 1-896): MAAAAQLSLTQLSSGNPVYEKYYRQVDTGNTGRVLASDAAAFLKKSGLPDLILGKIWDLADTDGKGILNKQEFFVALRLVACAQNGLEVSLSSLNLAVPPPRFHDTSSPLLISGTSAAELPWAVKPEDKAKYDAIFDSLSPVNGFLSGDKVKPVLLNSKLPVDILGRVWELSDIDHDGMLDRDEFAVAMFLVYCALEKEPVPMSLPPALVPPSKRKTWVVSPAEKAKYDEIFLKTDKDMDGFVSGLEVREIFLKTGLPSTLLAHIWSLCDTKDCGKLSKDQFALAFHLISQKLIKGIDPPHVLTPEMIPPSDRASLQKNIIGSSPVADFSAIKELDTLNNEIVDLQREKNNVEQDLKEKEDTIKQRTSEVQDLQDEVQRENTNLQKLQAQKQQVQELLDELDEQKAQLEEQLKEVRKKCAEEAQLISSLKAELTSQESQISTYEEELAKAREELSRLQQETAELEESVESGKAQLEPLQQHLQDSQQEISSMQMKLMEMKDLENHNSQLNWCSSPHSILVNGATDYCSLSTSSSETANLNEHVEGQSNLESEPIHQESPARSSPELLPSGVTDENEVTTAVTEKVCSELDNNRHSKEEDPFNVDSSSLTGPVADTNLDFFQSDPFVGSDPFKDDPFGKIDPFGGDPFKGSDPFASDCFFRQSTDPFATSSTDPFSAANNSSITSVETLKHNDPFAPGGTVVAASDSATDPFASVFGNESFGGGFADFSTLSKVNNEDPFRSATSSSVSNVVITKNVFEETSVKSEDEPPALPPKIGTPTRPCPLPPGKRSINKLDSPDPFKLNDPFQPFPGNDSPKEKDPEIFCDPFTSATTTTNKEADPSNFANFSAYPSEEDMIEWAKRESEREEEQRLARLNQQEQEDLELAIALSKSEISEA
Kind of assay: Titration nHU, Western blot, endogenous EPS15 in Jurkat extract. It is filed as binding. Particulars: source data of Fig 5, titration nHU, unit inferred. The text has this:
To identify the partners of NPF motifs, we used the native holdup (nHU) assay that was recently developed by our team (Fig. 1B). The holdup approach has been extensively used to determine equilibrium dissociation constants of transient interactions mediated by PDZ and SH3 domains, 14-3-3, and human papilloma virus E6 proteins, and even nucleic acid-protein interactions[7],[30]–[35]. In the nHU experiments, a purified bait molecule, or a control compound, is immobilized on a resin at high concentration (typically 10 μM, or higher) and these resin stocks are subsequently mixed with dilute cell extracts. After a relatively long incubation, i.e., 2 h at 4 °C, the liquid phase is separated by centrifugation. This liquid phase contains the unbound prey molecules at near binding equilibrium that can be quantified using selective and quantitative analytical approaches, such as mass spectrometry. Therefore, proteins that interact with the bait molecule will appear to be depleted in the solvent phase and by measuring its relative concentration compared to the control nHU experiment, the degree of binding (θ) can be determined that can be converted to apparent steady-state dissociation constants, according to:1 θ=1−Ifree/Itot=Cbait/Cbait+Kapp where Itot and Ifree are the measured total and bait-depleted equilibrium mass spectrometry total ion intensities of prey proteins, Cbait is the bait molecule concentration and Kapp is the apparent dissociation constant.
Jurkat E6.1 cells (ECACC #88042803, RRID: CVCL_0367) were grown in RPMI (Gibco) medium completed with 10% FBS (Gibco BRL) and 40 μg/ml gentamicin (Gibco/Life Technology). To prepare total cell extracts, Jurkat cells were seeded onto T-175 flasks and grew until 3 × 10^6 cells/ml confluency. Cells were collected by 1000 g x 5 min centrifugation, washed with PBS and then lysed in ice-cold lysis buffer (Hepes-KOH pH 7.5 50 mM, NaCl 150 mM, Triton X-100 1%, cOmplete EDTA-free protease inhibitor cocktail 5x, TCEP 5 mM, glycerol 10%).
Cell suspensions were sonicated 4×20 sec with 1 sec long pulse on ice, then incubated rotating at 4 °C for 30 min. The lysates were centrifuged at 12,000 rpm 4 °C for 20 min and supernatant was kept. Total protein concentration was measured by standard Bradford method (Bio-Rad Protein Assay Dye Reagent #5000006) using a BSA calibration curve (MP Biomedicals #160069, diluted in lysis buffer) on a Bio-Rad SmartSpec 3000 spectrophotometer instrument.
Titration holdup experiments were carried out as described above using 25 μl saturated resins prepared. Briefly, we mixed control, or bait-saturated resins at various proportions by keeping the total resin amount and resin-analyte ratio constant during the experiment (for 25 μl we used 100 μl cell extract as analyte). In titration experiments with protein baits, bait concentration was determined as described above for the saturated resin stocks. Experiments were carried out at 4 °C for 2 h and recovered supernatants were subjected to western blot or dot blot analysis.
For Western blot, samples were mixed with 4x Laemmli Sample Buffer in 3:1 ratio. Equal amounts of samples were loaded on 6-10% acrylamide-gels (generally 16 μg). Transfer was done into PVDF membranes using a Trans-Blot Turbo Transfer System and Trans-Blot Turbo RTA Transfer Kit (BioRad, #1704275). For Dot blot, nHU samples were directly loaded on Nitrocellulose membranes using 48 Sample vacuum manifold (Cleaver Scientific) following the manufacturer’s recommendations. […]

Assay [6] deals with DDX18 (Homo sapiens, UniProt Q9NVP1). As to the kind of experiment: nHU-MS peptide bait, prey DDX18.
The target in assay [7] is GTPBP4 (Homo sapiens, UniProt Q9BZE4). Kind of assay: nHU-MS peptide bait, prey GTPBP4.
For assay [8], the target named is T3, HA-MBP-POLE2 (Homo sapiens, UniProt P56282).
T3 construct: POLE2: UniProt ID P56282, residues 1-527; expressed in transfected cells; host or cells: HEK293T
Kind of assay: Titration nHU, Western blot, HA-MBP-POLE2 in 293T cell extract. Particulars: MBP-tagged POLE2, depending on the experimental setup, authors' rebuttal; read-out: dissociation constants. The format is binding.
Description: as §1

Chain of DDX18 (Q9NVP1 whole entry): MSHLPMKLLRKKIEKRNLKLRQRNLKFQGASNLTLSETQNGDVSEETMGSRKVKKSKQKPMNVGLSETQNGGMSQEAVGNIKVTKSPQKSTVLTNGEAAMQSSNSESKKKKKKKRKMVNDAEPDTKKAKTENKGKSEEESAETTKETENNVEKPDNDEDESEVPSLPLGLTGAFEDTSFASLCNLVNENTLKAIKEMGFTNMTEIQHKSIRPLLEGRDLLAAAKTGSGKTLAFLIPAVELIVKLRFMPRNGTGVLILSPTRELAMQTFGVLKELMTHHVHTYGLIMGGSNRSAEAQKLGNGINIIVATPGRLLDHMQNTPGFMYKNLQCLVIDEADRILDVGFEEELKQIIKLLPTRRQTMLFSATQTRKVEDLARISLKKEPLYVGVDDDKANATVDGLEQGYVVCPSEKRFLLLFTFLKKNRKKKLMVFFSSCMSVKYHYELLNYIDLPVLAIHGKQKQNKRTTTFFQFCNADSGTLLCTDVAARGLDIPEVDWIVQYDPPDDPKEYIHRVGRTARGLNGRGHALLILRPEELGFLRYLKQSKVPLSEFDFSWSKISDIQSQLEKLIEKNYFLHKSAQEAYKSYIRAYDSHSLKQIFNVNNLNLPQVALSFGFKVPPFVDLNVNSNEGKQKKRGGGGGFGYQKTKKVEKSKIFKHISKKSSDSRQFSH
Chain of HP1BP3 (Q5SSJ5 whole entry): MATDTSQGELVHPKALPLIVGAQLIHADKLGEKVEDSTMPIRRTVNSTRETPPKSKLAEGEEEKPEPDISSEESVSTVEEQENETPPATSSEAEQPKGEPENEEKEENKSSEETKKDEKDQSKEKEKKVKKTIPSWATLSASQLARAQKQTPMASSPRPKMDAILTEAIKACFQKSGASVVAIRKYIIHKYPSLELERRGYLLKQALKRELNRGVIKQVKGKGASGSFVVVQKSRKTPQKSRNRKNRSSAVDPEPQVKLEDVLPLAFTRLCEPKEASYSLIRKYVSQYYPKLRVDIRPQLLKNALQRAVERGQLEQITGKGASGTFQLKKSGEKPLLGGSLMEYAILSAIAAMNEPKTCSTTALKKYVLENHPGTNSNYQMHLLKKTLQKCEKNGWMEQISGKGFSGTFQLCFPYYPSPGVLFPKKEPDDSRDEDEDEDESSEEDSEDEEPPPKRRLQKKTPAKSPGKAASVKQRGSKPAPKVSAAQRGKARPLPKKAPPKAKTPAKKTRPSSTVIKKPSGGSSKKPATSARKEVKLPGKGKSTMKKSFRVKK
Chain of RFT1 (Q96AA3 whole entry): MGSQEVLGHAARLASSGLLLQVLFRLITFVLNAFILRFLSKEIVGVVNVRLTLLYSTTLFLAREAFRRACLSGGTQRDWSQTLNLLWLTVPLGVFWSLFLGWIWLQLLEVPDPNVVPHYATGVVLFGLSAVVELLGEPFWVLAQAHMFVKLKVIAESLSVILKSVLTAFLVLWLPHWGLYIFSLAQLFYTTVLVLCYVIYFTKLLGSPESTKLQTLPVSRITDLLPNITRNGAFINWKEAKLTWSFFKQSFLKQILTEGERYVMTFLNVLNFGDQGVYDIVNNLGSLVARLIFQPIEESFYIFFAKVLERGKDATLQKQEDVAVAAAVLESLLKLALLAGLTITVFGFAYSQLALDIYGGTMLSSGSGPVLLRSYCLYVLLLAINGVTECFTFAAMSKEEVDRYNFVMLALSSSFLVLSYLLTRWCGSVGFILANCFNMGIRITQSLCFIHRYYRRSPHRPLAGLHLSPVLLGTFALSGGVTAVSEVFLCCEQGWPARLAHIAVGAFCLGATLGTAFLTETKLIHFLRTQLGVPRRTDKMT
Chain of CD2AP (Q9Y5K6 whole entry): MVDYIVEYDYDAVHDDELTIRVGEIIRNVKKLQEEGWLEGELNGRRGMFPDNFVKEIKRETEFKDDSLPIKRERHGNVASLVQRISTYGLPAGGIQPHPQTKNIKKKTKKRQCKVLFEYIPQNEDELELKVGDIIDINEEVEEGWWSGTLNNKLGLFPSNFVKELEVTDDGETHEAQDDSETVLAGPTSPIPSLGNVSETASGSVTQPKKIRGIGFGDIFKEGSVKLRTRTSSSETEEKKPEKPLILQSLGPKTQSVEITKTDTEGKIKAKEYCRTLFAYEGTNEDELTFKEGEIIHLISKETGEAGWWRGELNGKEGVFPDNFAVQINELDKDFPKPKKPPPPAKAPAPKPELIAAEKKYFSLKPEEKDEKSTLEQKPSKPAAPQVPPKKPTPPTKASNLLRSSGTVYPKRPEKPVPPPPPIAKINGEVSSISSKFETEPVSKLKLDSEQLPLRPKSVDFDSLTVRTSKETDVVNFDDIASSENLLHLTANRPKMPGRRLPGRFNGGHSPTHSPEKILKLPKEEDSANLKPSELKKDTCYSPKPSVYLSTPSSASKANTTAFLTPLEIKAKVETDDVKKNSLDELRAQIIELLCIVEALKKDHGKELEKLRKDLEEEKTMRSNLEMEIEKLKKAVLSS
T3 sequence (P56282 whole entry, the tested form may be a part): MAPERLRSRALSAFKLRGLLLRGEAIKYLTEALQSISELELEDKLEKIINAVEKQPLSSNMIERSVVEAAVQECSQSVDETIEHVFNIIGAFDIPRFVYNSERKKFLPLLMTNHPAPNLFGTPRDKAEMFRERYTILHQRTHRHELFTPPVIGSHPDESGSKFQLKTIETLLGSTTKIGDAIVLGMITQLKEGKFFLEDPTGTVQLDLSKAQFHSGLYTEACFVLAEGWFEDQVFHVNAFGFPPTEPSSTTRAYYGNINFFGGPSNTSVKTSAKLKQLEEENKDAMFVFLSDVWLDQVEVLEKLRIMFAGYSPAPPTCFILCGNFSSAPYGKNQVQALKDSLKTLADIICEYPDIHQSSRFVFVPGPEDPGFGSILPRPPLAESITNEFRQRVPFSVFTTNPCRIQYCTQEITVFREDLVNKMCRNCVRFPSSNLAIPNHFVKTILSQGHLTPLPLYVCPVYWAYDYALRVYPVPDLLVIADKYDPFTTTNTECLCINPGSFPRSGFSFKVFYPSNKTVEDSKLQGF
T1 sequence (P56282 whole entry, the tested form may be a part): as above

For the compound `CC(C)C[C@H](NC(=O)[C@H](CCCNC(=N)N)NC(=O)[C@H](C)NC(=O)[C@H](Cc1ccccc1)NC(=O)[C@@H]1CCCN1C(=O)[C@H](CC(N)=O)NC(=O)[C@H](CCCNC(=N)N)NC(=O)[C@H](CCCNC(=N)N)NC(=O)[C@H](C)NC(=O)[C@H](C)NC(=O)[C@H](C)NC(=O)[C@@H]1CCCN1C(=O)CN)C(=O)N[C@@H](CC(=O)O)C(=O)N[C@@H](CC(N)=O)C(=O)N[C@@H](CCCNC(=N)N)C(=O)N1CCC[C@H]1C(=O)N[C@@H](CCCNC(=N)N)C(N)=O` [DONSON_71-88] (H-GPAAARRNPFARLDNRPR-NH2), the Kd was 24.2 µM in assay [1]; 18.8 µM in assay [2]; 0.3 to 0.5 µM in assay [3]; 31.2 µM in assay [4]; > 60 µM in assay [5]; 29.5 µM in assay [6]. Further, the Kd in assay [7] is 29.7 µM; in assay [8] it was 1 to 10 µM. The BI stood at 0.292 in assay [1] (prey RFT1, MS7_Varjosalo); 0.3476 in assay [2] (prey CD2AP, MS7_Varjosalo); 0.2425 in assay [4] (prey HP1BP3, MS2_Varjosalo); 0.2529 in assay [6] (prey DDX18, MS2_Varjosalo); 0.252 in assay [7] (prey GTPBP4, MS2_Varjosalo).
